{"source": "patent US20210244813A1", "about": "“ADJUVANT AND VACCINE COMPOSITIONS” (priority 2012, published 2021)", "system": "IL-4", "assay": "Relative IL-4 mRNA expression (real time RT-PCR) in cultured splenic lymphocytes of vaccinated mice", "type": "cell-based", "details": "vaccine treatment group; culture with LAP, LAP/QAC or OVA"}
{"substance": "OVA", "values": [{"measurement": "IL-4 expression normalized to ARBP at 48 hours in culture", "result": "Increased IL-4 expression was observed for some animals"}]}
